Laboratory results reported in ChEMBL document CHEMBL2331258, “HR-MALDI-MS imaging assisted screening of β-carboline alkaloids discovered from Mycena metata” (2013).
Activity calls are given as the source filed them. The calls are words filed in the database; no cut-off is given here.

Key:
Bacillus subtilis [1] = experiment: Antibacterial activity against Bacillus subtilis NCCB 1089 assessed as diameter of growth inhibition zone at 0.5 umol at 37 degC after 24 hrs by agar diffusion assay; format: functional
Brevibacillus brevis [2] = experiment: Antibacterial activity against Bacillus brevis NCCB 89173 assessed as diameter of growth inhibition zone at 0.5 umol at 37 degC after 24 hrs by agar diffusion assay; format: functional
Bacillus pumilus [3] = experiment: Antibacterial activity against Bacillus pumilus assessed as diameter of growth inhibition zone at 0.5 umol at 26 degC after 24 hrs by agar diffusion assay; format: functional
Brevibacillus brevis [4] = experiment: Antibacterial activity against Bacillus brevis NCCB 89173 assessed as growth inhibition at 0.5 umol at 37 degC after 24 hrs by agar diffusion assay; format: functional, organism-based
Saccharomyces cerevisiae = experiment: Antibacterial activity against Saccharomyces cerevisiae assessed as growth inhibition at 0.5 umol at 26 degC after 24 hrs by agar diffusion assay; format: functional, organism-based
Bacillus pumilus [5] = experiment: Antibacterial activity against Bacillus pumilus assessed as growth inhibition at 0.5 umol at 26 degC after 24 hrs by agar diffusion assay; format: functional, organism-based
Cladosporium cucumerinum = experiment: Antibacterial activity against Cladosporium cucumerinum CBS 177.54 assessed as growth inhibition at 0.5 umol at 18 degC after 3 to 5 days by agar diffusion assay; format: functional, organism-based
Escherichia coli = experiment: Antibacterial activity against Escherichia coli assessed as growth inhibition at 0.5 umol at 37 degC after 24 hrs by agar diffusion assay; format: functional, organism-based
Bacillus subtilis [6] = experiment: Antibacterial activity against Bacillus subtilis NCCB 1089 assessed as growth inhibition at 0.5 umol at 37 degC after 24 hrs by agar diffusion assay; format: functional, organism-based

NCCC[C@H](N)CC(=O)N[C@@H]1[C@@H](O)[C@H](OC(N)=O)[C@@H](CO)O[C@H]1/N=C1\N[C@@H]2[C@H](O)CNC(=O)[C@H]2N1 [NOURSEOTHRICIN]
diameter of the inhibition zone (DIZ) (Bacillus subtilis [1]): 14 mm
diameter of the inhibition zone (DIZ) (Brevibacillus brevis [2]): 25 mm
diameter of the inhibition zone (DIZ) (Bacillus pumilus [3]): 25 mm

C[C@@H](O)[C@H](NC(=O)c1cc2c([nH]c3ccc(O)cc32)c(CCC(=O)N2CCC[C@H]2C(=O)O)n1)C(=O)O
growth inhibition (GI) (Brevibacillus brevis [4]): inactive
growth inhibition (GI) (Saccharomyces cerevisiae): inactive
growth inhibition (GI) (Bacillus pumilus [5]): inactive
growth inhibition (GI) (Cladosporium cucumerinum): inactive
growth inhibition (GI) (Escherichia coli): inactive
growth inhibition (GI) (Bacillus subtilis [6]): inactive
